Experiments:
HUVECs cells = assay: Tube formation assay in VEGF-165-induced HUVECs; assay type: cell-based, human
Protocol: 48-well plates were coated with 200 μl Matrigel and maintained at 37° C. for 1 hour, and HUVECs cells were stained with Calcein-AM for 15 minutes at 37° C.
The stained HUVECs cells were dispensed into 2×10^4 cells in each well of a Matrigel-coated plate and treated with recombinant human VEGF-165 into each well to induce the tube formation of the cells.
Thereafter, collagen type I (collagen type I alpha 1, partial [Sus scrofa] GenBank: AAR03833.1) and 34-mer pigment epithelium derived factor peptide (DPFFKVPVNKLAAAVSNFGYDLYRVRSSTSPTTN: SEQ ID NO: 1) were treated separately, respectively, or mixed together and treated and incubated for 4 hours at 37° C., and the degree of tube formation of each group was confirmed.
The degree of tube formation was confirmed by taking pictures with a Micromanipulator (Olympus) and compared by measuring the length of the tube.

[1] = system: choroidal neovascularization (CNV); assay: Laser-induced choroidal neovascularization model, intravitreal injection immediately after laser irradiation; assay type: in vivo, C57BL/6 mice; conditions: intraocular injection for 5 days, day 14 after laser (FIG. 2A, 2B)
Protocol: 5-8 week old C57BL/6 mice were purchased from Orient and used.
The pupils of each mouse were dilated using 5 mg/mL Tropicamide (santen pharmaceutical co. ltd, Kita-ku, Osaka, Japan) eye drops and 100 mg/kg ketamine (Huons, SEONGNAM-SI, GYEONGGI-DO, Korea) and 10 mg/kg xylazine (BAYER, Leverkusen, Germany) were anesthetized by intraperitoneal injection.
After anesthesia, the mice were fixed to the mouse holder, and a laser beam of 150 to 210 mW intensity was irradiated for 0.1 second using a slit lamp microscope laser system to prepare four lesions of 50-100 μm size in the retinas of mice at 3, 6, 9 and 12 o'clock. At this time, droplets should be formed by the laser beam, which are important for breaking Bruch's membranes to form neovascularization (CNV). […]
The stained eyeball was separated and placed in 10% formalin to fix for 30 minutes, and then muscles, corneas, irises, lenses and vitreous bodies around the eyeball were carefully removed not to hurt the eye's retina fixed on the microscope and four sections were cut at 3, 6, 9, and 12 o'clock, covered with coverslip, the lesion was photographed using a fluorescence microscope, and the size was measured to compare with the control group.

[2] = system: choroidal neovascularization (CNV); assay: Choroidal neovascularization model with complete neovascularization, treatment on day 7 after laser irradiation; assay type: in vivo, C57BL/6 mice; conditions: 0.1% collagen type I, 25 pmol peptide or their mixture, administered once on day 7 after laser irradiation (FIG. 7B, 7C)
HUVECs tube formation = assay: Stability confirmation by tube formation assay after storage; assay type: physicochemical, human; conditions: stored for 6 weeks at 4° C. and room temperature (FIG. 11)
Protocol: In order to confirm the stability of the mixture of PEDF 34-mer peptide and collagen, the mixture of PEDF 34-mer peptide and collagen and the PEDF 34-mer peptide were stored for 6 weeks at 4° C. and room temperature (RT), and stability of PEDF 34-mer peptide and PEDF 34-mer peptide and collagen mixture, which were prepared immediately before the experiment, were compared.
Tube formation assay for each mixture was performed to confirm angiogenesis inhibitory ability.

Which results are given for “DPFFKVPVNKLAAAVSNFGYDLYRVRSSTSPTTN (DPFFKVPVNKLAAAVSNFGYDLYRVRSSTSPTTN; pigemented epithelium derived factor peptide)”?
inhibitory effect on tube formation (HUVECs cells; carrier comparison: 0.1% collagen type I, hyaluronic acid or gelatin, alone or with peptide 0.02-500 pmol/ml (FIG. 4)): same as that of the 34-mer pigment epithelium derived factor peptide and collagen type I mixture administration group; inhibitory effect on tube formation (HUVECs cells; peptide alone 0.2 pg/ml, VEGF-165-induced HUVECs, 4 hours (FIG. 1A, 1B)): greatest inhibitory effect on tube formation; tube formation (HUVECs cells; peptide alone at higher concentrations (up to 5 pmol/ml), 4 hours (FIG. 1A, 1B)): the tube formation increased again; tube formation (HUVECs cells; peptide at high concentration, alone or mixed with 0.05 or 0.1% collagen type I (FIG. 3)): the tube formation increased rapidly; size of neovascularization (CNV) ([1]; peptide 10 pmol): increase neovascularization (CNV) again; size of neovascularization (CNV) ([1]; peptide 0.01, 0.5 and 0.1 pmol): significantly reduced; angiogenesis inhibitory effect [2]: almost no angiogenesis inhibitory effect; stability: tube formation inhibition after storage compared with preparation made immediately before the experiment (HUVECs tube formation): did not inhibit the tube formation
